Patent publication US10413594B2, “Conjugates of somatostatin analogues” (ProLynx LLC, priority 2013, dated 2019)
Structures can show the parent of a compound that is named as a salt. Starred links: 1 amine or outer side, 2 acyl side, 3 side chain; linkers in the order of their positions; H or OH if unused. Non-standard residues stand in square brackets, D forms with d. Residues, ends and D or L forms follow the SMILES beside them. Groups on a side chain read outwards from the residue. *: point of attachment. Ethylenediamine = C(CN[*:2])N[*:1]; Hyp = O=C(O)[C@@H]1C[C@@H](O)CN1; Phg = N[C@H](C(=O)O)c1ccccc1; CO = O=C([*:1])[*:2]; Bn = c1ccc(C*)cc1

What was measured:
[1] = target: somatostatin receptor 5 (Homo sapiens, UniProt P35346); settings: relative to other somatostatin analogs; cited from earlier work
somatostatin receptor 5, sequence (P35346 whole entry): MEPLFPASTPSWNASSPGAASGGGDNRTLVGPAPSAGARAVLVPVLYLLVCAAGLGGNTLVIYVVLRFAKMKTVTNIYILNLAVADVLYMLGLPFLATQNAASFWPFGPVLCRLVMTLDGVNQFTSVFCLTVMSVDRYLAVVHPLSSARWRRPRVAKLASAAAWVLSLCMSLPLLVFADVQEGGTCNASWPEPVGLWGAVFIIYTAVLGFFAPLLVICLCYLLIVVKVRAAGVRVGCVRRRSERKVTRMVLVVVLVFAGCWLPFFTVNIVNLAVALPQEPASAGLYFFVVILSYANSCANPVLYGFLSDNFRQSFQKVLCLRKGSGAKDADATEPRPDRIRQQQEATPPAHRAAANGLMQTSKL

[2] = subcutaneous administration; cited from earlier work
[3] = In vivo pharmacokinetics after IV injection in cannulated rats; settings: Sprague Dawley, rat, plasma, 56 mg/kg conjugate
Protocol: PK assays on the conjugates of Example 5 were performed on cannulated Sprague Dawley rats. […] Blood samples were collected at 0, 1, 2, 4, 8, 12, 24, 48, 72, and 120 hours. At each timepoint a 300 μL blood sample was added to 30 μL of a 1M citrate/0.1% Pluronic® F68 solution, pH 4.5 to lower the pH and remove coagulation factors to give plasma.
A portion of the plasma samples were precipitated by addition of 3 parts acetonitrile and centrifuged at 16000×g for 10 minutes. The samples were analyzed by HPLC for PEG-peptide conjugate and PEG-remnant concentrations. Concentrations were calculated by comparison of peak areas to a standard curve.
A portion of the releasable plasma samples was analyzed by LC/MSMS for free octreotide (MedPace).
The volume of distribution (100 mL/kg) is also in line with previous PEG conjugate, typically measured at the approximate blood volume of the rat (70 mL/kg).

[4] = subcutaneous administration; cited from earlier work; remark: listed apart in the source

NCCCC[C@@H]1NC(=O)[C@@H](Cc2c[nH]c3ccccc23)NC(=O)[C@H](c2ccccc2)NC(=O)[C@@H]2C[C@@H](OC(=O)NCCN)CN2C(=O)[C@H](Cc2ccccc2)NC(=O)[C@H](Cc2ccc(OCc3ccccc3)cc2)NC1=O [Pasireotide, (2-aminoethyl) carbamic acid (2R,5,8S,11S,14R,17S,19aS)-11-(4-aminobutyl)-5-benzyl-8-(4-benzyloxybenzyl)-14-(1H-indol-3ylmethyl)-4,7,10,13,16,19-hexaoxo-17-phenyloctadecahydro-3a,6,9,12,15,18-hexaazacyclopentacyclooctadecen-2-yl ester, di[(S)-2-aminosuccinic acid] salt] (cyclo([Hyp]([CO-Ethylenediamine])[Phg][dW]KY(Bn)F))
increased affinity to somatostatin receptor 5 than other somatostatin analogs [1]: 40 fold
effective half-life [2]: approximately 12 h
volume of distribution [2]: > 100 L

C[C@@H](O)[C@@H]1NC(=O)[C@H](CCCCN)NC(=O)[C@@H](Cc2c[nH]c3ccccc23)NC(=O)[C@H](Cc2ccccc2)NC(=O)[C@@H](NC(=O)[C@H](N)Cc2ccccc2)CSSCC(C(=O)N[C@H](CO)[C@@H](C)O)NC1=O (relative stereo) [Octreotide, D-phenylalanyl-L-cysteinyl-L-phenylalanyl-D-tryptophyl-L-lysyl-L-threonyl-N-[2-hydroxy-1-(hydroxymethyl)propyl]-L-Cysteinamide, cyclic (2→7)-disulfide; [R—(R*,R*)]]
half-life [3]: 50 h
average half-life of elimination from plasma [4]: 1.7 h
